These results are taken from patent publication US20130324606A1, “Ester Derivatives of Bimatoprost Compositions and Methods” (ALLERGAN, INC., priority 2011, published 2013).

One series concerns mouse skin. The series can be described thus: Pathology assessment of mouse hair regrowth model. It counts as in vivo, mice. The conditions noted are these: histology, 0.03% active, vehicle control still in growth phase. The text has this: Histological samples from test subjects employed in the studies described in Example 12 were obtained for pathology assessment.
The subject of the next series is C57Black/6J mice. The series is described as follows: Piliation (hair regrowth) studies in mice. It counts as in vivo. Particulars: 0.03%, topical QD 14 days, vehicle 50% propylene glycol, 30% ethanol, 20% water. How it is done: C57Black/6J, 7-week old female mice (n=10) were employed in piliation studies. Dorsal hair was shaved (area ˜2 cm×4 cm). Dosing of active agent was once per day (QD) by topical administration for 14 days. Observations were conducted for 42-days to determine onset of new hair growth and day of hair growth completion. Compounds were formulated as either a) 50% propylene glycol, 30% ethanol, 20% water, or b) the formulation of Formulation A described above. The experiments reported for FIGS. 4A-4B, 5A-5B, 6A-6B, 8A-8B, and 9A-9B were conducted using a vehicle with formulation of 50% propylene glycol, 30% ethanol, 20% water. The experiments reported for FIGS. 7A-7B were conducted using a vehicle of Formulation A described above.
For each of FIGS. 4A, 5A, 6A, 7A, 8A and 9A, the histograms depict the day of onset of hair growth. For each of FIGS. 4B, 5B, 6B, 7B, 8B and 9B, the histograms depict the day achieving full hair growth.

The test system of series [1] is human hair dermal papilla cells, HHDPC. The series can be described thus: Cellular dielectric spectroscopy (CDS) in dermal papilla cells. It counts as cell-based. Here is the method: Cellular dielectric spectroscopy (CDS) was conducted in an assay of dermal papilla cells (i.e., human hair dermal papilla cells, HHDPC) with bimatoprost and Cmpds IVc and IVb. As known in the art, CDS is a real-time, non-invasive, label-free, high-throughput, cell-based assay which measures electrical cell impedance. Without wishing to be bound by any theory, it is believed that GPCR activation induces changes in cell morphology, cell-cell interaction, and cell adherence which manifest as a change in cell impedance.

The nature of series [2]: Pharmacokinetic assessment of mouse hair regrowth model. It is filed as in vivo. Particulars: mice, 0.03% dermal daily ~60 uL, all measured time points, LC/MS-MS. How it is done: Female C57BL/6J mice (n=2) were assayed per time point per treatment group. Treatment groups: (1) vehicle; (2) 0.03% Cmpd IVa; (3) 0.03% Cmpd IIIb; (4) 0.03% Cmpd IVb; (5) 0.03% bimatoprost. Treatment dosing: dermal daily application of ˜60 uL test compound solution. Blood and skin pharmacokinetic time points were obtained at day 1 (1, 4, 8 and 24-hrs post-dose); day 2 (24-hrs post-dose); day 14 (24-hrs post-dose); and day 42 (28 days post day 14 dose). Bioanalysis employed LC/MS-MS.

Series [3] is described as follows: Partitioning in artificial sebum. It is filed as physicochemical. Here is the method: Compounds bimatoprost, Cmpd IVa, and Cmpd IIIb were added to aqueous solution (1 mL, 2-20 ug/mL), with and without 1-20 mg artificial sebum. Samples were shaken for 16 hr at 37° C. Samples were then centrifuged (8000 RPM) for 15 min at room temperature, prior to collection of the aqueous solution. Samples were analyzed for concentration of compound without artificial sebum (i.e., Co) and with artificial sebum (i.e., Ci) by mass spectroscopy. Artificial sebum and water partition coefficient (Ksebum) was expressed as the concentration of drug in 1 g of artificial sebum divided by the concentration of drug in 1 g of aqueous solution, and was calculated as Ksebum=(Co−Ci)Waqueous/(Ci×Wsebum) (Eqn. 1), where W represents weight.
Artificial sebum was prepared as follows: 15% (w/w) squalene, 15% spermaceti, 10% coconut oil, 1.5% oleic acid, 5% palmitic acid, 2.4% cholesterol oleate, 10% paraffin wax, 10% olive oil, 25% cottonseed oil, 5% palmitoleic acid, 1.2% cholesterol. The melting point of the semi-liquid was 37° C.

Series [4] can be described thus: Compound distribution in mouse skin by MALDI-MS imaging. Particulars: topical dermal, once daily 3 days, 4 hr after day-3 dosing. It counts as in vivo. Here is the method: In order to determine the penetration, accumulation and/or differential distribution of bimatoprost and compounds disclosed herein upon dermal administration, MALDI-MS (matrix assisted laser desorption ionization mass spectroscopy) imaging was conducted on explanted samples of mouse skin after topical dermal administration.
MALDI-MS imaging was conducted on mouse skin strips after administration of bimatoprost or compound disclosed herein once daily for 3 days. Samples of mouse skin were recovered 4 hr after day-3 dosing of compound. Dermal administration was conducted with vehicle, 0.03% bimatoprost, 3% bimatoprost, 0.03% Cmpd IVa, and 3% Cmpd IVa.
FIG. 16A depicts a typical explanted sample of mouse skin for these studies, wherein Cmpd IVa was applied via dermal administration. FIG. 16B depicts the result of MALDI-MS imaging. The intensity of each pixel within FIG. 16B reflects the concentration of Cmpd IVa at the corresponding point in the image depicted in FIG. 16A. FIG. 16C depicts a representative mass spectrum, corresponding to the region of FIG. 16B indicated by the white circle within FIG. 16B. Accordingly, each pixel of the image of FIG. 16B has an associated mass spectrum, providing the amounts of bimatoprost or other administered compound or metabolite thereof.

Series [5] is described as follows: In vitro human skin penetration (Franz diffusion chamber). It is filed as in vitro ADME. Particulars: 0.03% in Formulation A, dosed compound. The text has this: Test material: Dermatomed ex vivo human cadaver posterior trunk skin on 1.0 cm^2 Franz diffusion chamber as known in the art. Test size: 3 skin donors (obtained from New York Firefighters Skin Bank), 3 replicates per donor per formulation. Test formulations: 0.03% active agent (Cmpd IVa, Cmpd IIIb, Cmpd IVb) in Formulation A; control formulation: bimatoprost at 0.03% in Formulation A. Dosing regimen: receptor fluid at 2, 4, 24, and 48 hrs; SC/epidermis and dermis at 48 hrs. Sample analysis: LC/MS-MS to detect bimatoprost and Cmpds IVa, IIIb and IVb.

For the molecule `CCNC(=O)CCC/C=C\C[C@@H]1[C@@H](/C=C/[C@@H](O)CCc2ccccc2)[C@H](O)C[C@@H]1O` [bimatoprost, (Z)-7-((1R,2R,3R,5S)-3,5-dihydroxy-2-((S,E)-3-hydroxy-5-phenylpent-1-enyl)cyclopentyl)-N-ethylhept-5-enamide], in the series on mouse skin, the “hair cycle phase at day-42” value is listed as “returned to the resting phase”. Further, the “days for hair growth to commence (day of onset of hair growth)” value in the series with C57Black/6J mice (FIG. 6A) is recorded as 22 days. Also, in the series on C57Black/6J mice (FIG. 6B), the “days for full hair growth to be achieved” value is reported as 44 days. The “change in cell impedance” value in series [1] is “characteristic change in cell impedance”. For the same molecule, in series [1] (cell impedance, tested range 10^−4 to 10^−13 mol/L), the EC50 is 3.0 to 6.3×10^−7 mol/L. Further, the “level in the systemic circulation” value in series [2] is given as “most undetectable”. Also, the “phase in which the majority of compound remains” value in series [3] (artificial sebum / aqueous solution) is given as “remain in the aqueous phase”. For the same molecule, in series [3] (n = 4, 16 hr at 37° C.), the “Ave. Ksebum (artificial sebum and water partition coefficient)” value is listed as 3.6. Further, the “levels of bimatoprost in skin after 3.0% bimatoprost versus after 3.0% Cmpd IVa” value in series [4] is “much higher”. Moreover, in series [5] (Franz chamber), the “Percentage Dose Applied, Receptor Chamber Solution, Prodrug” value is given as 1.1 Percentage Dose Applied. Besides, the “Percentage Dose Applied, Upper ⅓ Dermis, Prodrug” value in series [5] (dermis at 48 hrs) is 7.0 Percentage Dose Applied.
